Data reported in PMC10114720.

Legend:
[1] = neutral chemical: log K is the mean of log D over all measurements at the three pH values (D shown independent of pH, paired t-test); sd is the table's stddev. PDMS sheets cleaned by Soxhlet with ethyl acetate; batch shaking method with a mixture of all chemicals at several PDMS-mass to water-volume ratios and spiked levels; vials shaken on an orbital shaker at room temperature in the dark, sampled at two equilibration times; PDMS extracts and water quantified by LC-HRMS (Orbitrap); D from the slope of C_PDMS on C_w or their ratio; details: PDMS (polydimethylsiloxane silicone sheet); phosphate buffer at three target pH values (the paper's methods)
[2] = PDMS sheets cleaned by Soxhlet with ethyl acetate; batch shaking method with a mixture of all chemicals at several PDMS-mass to water-volume ratios and spiked levels; vials shaken on an orbital shaker at room temperature in the dark, sampled at two equilibration times; PDMS extracts and water quantified by LC-HRMS (Orbitrap); D from the slope of C_PDMS on C_w or their ratio; value is the mean over that pH's experiments (individual experiments in the SI's concentrations table), sd is the table's stdev; details: PDMS (polydimethylsiloxane silicone sheet), phosphate buffer at three target pH values (the paper's methods)

SMILES: Cc1ccc(C=C2C(=O)C3(C)CCC2C3(C)C)cc1 (centres unmarked)
- log K PDMS/w (neutral species) [1]: 3.848 log units; D and K as the pape
- log D PDMS/w (apparent distribution ratio at the stated pH) ([2]; pH 3): 3.9 log units; D and K as the pape
- log D PDMS/w (apparent distribution ratio at the stated pH) ([2]; pH 7.4): 3.912 log units; D and K as the pape
- log D PDMS/w (apparent distribution ratio at the stated pH) ([2]; pH 11.5): 3.742 log units; D and K as the pape

SMILES: CC=CC(=O)N(CC)c1ccccc1C (mixture of isomers)
- log K PDMS/w (neutral species) [1]: 2.056 log units; D and K as the pape
- log D PDMS/w (apparent distribution ratio at the stated pH) ([2]; pH 3): 2.104 log units; D and K as the pape
- log D PDMS/w (apparent distribution ratio at the stated pH) ([2]; pH 7.4): 2.038 log units; D and K as the pape
- log D PDMS/w (apparent distribution ratio at the stated pH) ([2]; pH 11.5): 2.025 log units; D and K as the pape

SMILES: CC(C)c1ccc2sc3ccccc3c(=O)c2c1
- log K PDMS/w (neutral species) [1]: 4.227 log units; D and K as the pape
- log D PDMS/w (apparent distribution ratio at the stated pH) ([2]; pH 3): 4.266 log units; D and K as the pape
- log D PDMS/w (apparent distribution ratio at the stated pH) ([2]; pH 7.4): 4.252 log units; D and K as the pape
- log D PDMS/w (apparent distribution ratio at the stated pH) ([2]; pH 11.5): 4.168 log units; D and K as the pape

SMILES: Cc1c(C(C)C)c(=O)n(-c2ccccc2)n1C
- log K PDMS/w (neutral species) [1]: 1.593 log units; D and K as the pape
- log D PDMS/w (apparent distribution ratio at the stated pH) ([2]; pH 3): 1.579 log units; D and K as the pape
- log D PDMS/w (apparent distribution ratio at the stated pH) ([2]; pH 7.4): 1.554 log units; D and K as the pape
- log D PDMS/w (apparent distribution ratio at the stated pH) ([2]; pH 11.5): 1.65 log units; D and K as the pape

SMILES: CN(C)C(=O)Nc1ccccc1
- log K PDMS/w (neutral species) [1]: 0.4555 log units; D and K as the pape
- log D PDMS/w (apparent distribution ratio at the stated pH) ([2]; pH 3): 0.45 log units; D and K as the pape
- log D PDMS/w (apparent distribution ratio at the stated pH) ([2]; pH 7.4): 0.473 log units; D and K as the pape
- log D PDMS/w (apparent distribution ratio at the stated pH) ([2]; pH 11.5): 0.443 log units; D and K as the pape

SMILES: CN(C)C(=O)Nc1ccc(Cl)c(Cl)c1
- log K PDMS/w (neutral species) [1]: 1.409 log units; D and K as the pape
- log D PDMS/w (apparent distribution ratio at the stated pH) ([2]; pH 3): 1.406 log units; D and K as the pape
- log D PDMS/w (apparent distribution ratio at the stated pH) ([2]; pH 7.4): 1.371 log units; D and K as the pape
- log D PDMS/w (apparent distribution ratio at the stated pH) ([2]; pH 11.5): 1.462 log units; D and K as the pape

SMILES: N#Cc1nn(-c2c(Cl)cc(C(F)(F)F)cc2Cl)c(N)c1SC(F)(F)F
- log K PDMS/w (neutral species) [1]: 2.436 log units; D and K as the pape
- log D PDMS/w (apparent distribution ratio at the stated pH) ([2]; pH 3): 2.477 log units; D and K as the pape
- log D PDMS/w (apparent distribution ratio at the stated pH) ([2]; pH 7.4): 2.459 log units; D and K as the pape
- log D PDMS/w (apparent distribution ratio at the stated pH) ([2]; pH 11.5): 2.375 log units; D and K as the pape

SMILES: CCCCCCCCn1sccc1=O
- log K PDMS/w (neutral species) [1]: 2.956 log units; D and K as the pape
- log D PDMS/w (apparent distribution ratio at the stated pH) ([2]; pH 3): 3.047 log units; D and K as the pape
- log D PDMS/w (apparent distribution ratio at the stated pH) ([2]; pH 7.4): 2.926 log units; D and K as the pape
- log D PDMS/w (apparent distribution ratio at the stated pH) ([2]; pH 11.5): 2.893 log units; D and K as the pape

SMILES: CN(C)c1ccc(C(=O)c2ccc(N(C)C)cc2)cc1
- log K PDMS/w (neutral species) [1]: 2.057 log units; D and K as the pape
- log D PDMS/w (apparent distribution ratio at the stated pH) ([2]; pH 3): 2.372 log units; D and K as the pape
- log D PDMS/w (apparent distribution ratio at the stated pH) ([2]; pH 7.4): 2.263 log units; D and K as the pape
- log D PDMS/w (apparent distribution ratio at the stated pH) ([2]; pH 11.5): 1.409 log units; D and K as the pape

SMILES: O=S(=O)(c1ccc(Cl)cc1)c1ccc(Cl)cc1
- log K PDMS/w (neutral species) [1]: 2.563 log units; D and K as the pape
- log D PDMS/w (apparent distribution ratio at the stated pH) ([2]; pH 3): 2.579 log units; D and K as the pape
- log D PDMS/w (apparent distribution ratio at the stated pH) ([2]; pH 7.4): 2.592 log units; D and K as the pape
- log D PDMS/w (apparent distribution ratio at the stated pH) ([2]; pH 11.5): 2.517 log units; D and K as the pape

SMILES: CC(C)Nc1nc(N)nc(Cl)n1
- log K PDMS/w (neutral species) [1]: 0.4139 log units; D and K as the pape
- log D PDMS/w (apparent distribution ratio at the stated pH) ([2]; pH 3): 0.418 log units; D and K as the pape
- log D PDMS/w (apparent distribution ratio at the stated pH) ([2]; pH 7.4): 0.4125 log units; D and K as the pape
- log D PDMS/w (apparent distribution ratio at the stated pH) ([2]; pH 11.5): 0.411 log units; D and K as the pape

SMILES: N#Cc1nn(-c2c(Cl)cc(C(F)(F)F)cc2Cl)c(N)c1S(=O)(=O)C(F)(F)F
- log K PDMS/w (neutral species) [1]: 2.329 log units; D and K as the pape
- log D PDMS/w (apparent distribution ratio at the stated pH) ([2]; pH 3): 2.417 log units; D and K as the pape
- log D PDMS/w (apparent distribution ratio at the stated pH) ([2]; pH 7.4): 2.376 log units; D and K as the pape
- log D PDMS/w (apparent distribution ratio at the stated pH) ([2]; pH 11.5): 2.192 log units; D and K as the pape

SMILES: [O-][n+]1cccc2ccccc21
- log K PDMS/w (neutral species) [1]: 1.126 log units; D and K as the pape
- log D PDMS/w (apparent distribution ratio at the stated pH) ([2]; pH 3): 1.066 log units; D and K as the pape
- log D PDMS/w (apparent distribution ratio at the stated pH) ([2]; pH 7.4): 1.11 log units; D and K as the pape
- log D PDMS/w (apparent distribution ratio at the stated pH) ([2]; pH 11.5): 1.203 log units; D and K as the pape

SMILES: CNC(=O)/C(=N/OC)c1ccccc1COc1cc(C)ccc1C
- log K PDMS/w (neutral species) [1]: 2.396 log units; D and K as the pape
- log D PDMS/w (apparent distribution ratio at the stated pH) ([2]; pH 3): 2.432 log units; D and K as the pape
- log D PDMS/w (apparent distribution ratio at the stated pH) ([2]; pH 7.4): 2.361 log units; D and K as the pape
- log D PDMS/w (apparent distribution ratio at the stated pH) ([2]; pH 11.5): 2.397 log units; D and K as the pape

SMILES: O=C1CC2(CCCCC2)CN1
- log K PDMS/w (neutral species) [1]: 1.277 log units; D and K as the pape
- log D PDMS/w (apparent distribution ratio at the stated pH) ([2]; pH 3): 1.311 log units; D and K as the pape
- log D PDMS/w (apparent distribution ratio at the stated pH) ([2]; pH 7.4): 1.249 log units; D and K as the pape
- log D PDMS/w (apparent distribution ratio at the stated pH) ([2]; pH 11.5): 1.271 log units; D and K as the pape

SMILES: CC(C)(C#N)c1cc(Cn2cncn2)cc(C(C)(C)C#N)c1
- log K PDMS/w (neutral species) [1]: 2.022 log units; D and K as the pape
- log D PDMS/w (apparent distribution ratio at the stated pH) ([2]; pH 3): 2.047 log units; D and K as the pape
- log D PDMS/w (apparent distribution ratio at the stated pH) ([2]; pH 7.4): 1.994 log units; D and K as the pape
- log D PDMS/w (apparent distribution ratio at the stated pH) ([2]; pH 11.5): 2.025 log units; D and K as the pape

SMILES: NC(=O)Nc1ccc(Cl)c(Cl)c1
- log K PDMS/w (neutral species) [1]: 0.6359 log units; D and K as the pape
- log D PDMS/w (apparent distribution ratio at the stated pH) ([2]; pH 3): 0.5975 log units; D and K as the pape
- log D PDMS/w (apparent distribution ratio at the stated pH) ([2]; pH 7.4): 0.6543 log units; D and K as the pape
- log D PDMS/w (apparent distribution ratio at the stated pH) ([2]; pH 11.5): 0.6515 log units; D and K as the pape

SMILES: CC(C)(C)Nc1nc(N)nc(Cl)n1
- log K PDMS/w (neutral species) [1]: 1.296 log units; D and K as the pape
- log D PDMS/w (apparent distribution ratio at the stated pH) ([2]; pH 3): 1.314 log units; D and K as the pape
- log D PDMS/w (apparent distribution ratio at the stated pH) ([2]; pH 7.4): 1.264 log units; D and K as the pape
- log D PDMS/w (apparent distribution ratio at the stated pH) ([2]; pH 11.5): 1.309 log units; D and K as the pape

SMILES: O=C(/C=C/C=C/c1ccc2c(c1)OCO2)N1CCCCC1
- log K PDMS/w (neutral species) [1]: 3.135 log units; D and K as the pape
- log D PDMS/w (apparent distribution ratio at the stated pH) ([2]; pH 3): 3.24 log units; D and K as the pape
- log D PDMS/w (apparent distribution ratio at the stated pH) ([2]; pH 7.4): 3.109 log units; D and K as the pape
- log D PDMS/w (apparent distribution ratio at the stated pH) ([2]; pH 11.5): 3.066 log units; D and K as the pape

SMILES: CCCCCCCCCCCC(=O)NCC(C)O (centres unmarked)
- log K PDMS/w (neutral species) [1]: 3.231 log units; D and K as the pape
- log D PDMS/w (apparent distribution ratio at the stated pH) ([2]; pH 3): 3.188 log units; D and K as the pape
- log D PDMS/w (apparent distribution ratio at the stated pH) ([2]; pH 7.4): 3.329 log units; D and K as the pape
- log D PDMS/w (apparent distribution ratio at the stated pH) ([2]; pH 11.5): 3.181 log units; D and K as the pape

SMILES: CCCN(CCOc1c(Cl)cc(Cl)cc1Cl)C(=O)NC=O
- log K PDMS/w (neutral species) [1]: 2.487 log units; D and K as the pape
- log D PDMS/w (apparent distribution ratio at the stated pH) ([2]; pH 3): 2.492 log units; D and K as the pape
- log D PDMS/w (apparent distribution ratio at the stated pH) ([2]; pH 7.4): 2.482 log units; D and K as the pape
